Data reported in patent publication US20250084039A1, “4-SUBSTITUTED AMINOISOQUINOLINE DERIVATIVES” (Purdue Research Foundation, priority 2016, published 2025).
Like-named read-outs stand apart in the source and are kept apart here.

Key:
Type in all cases: cell-based
[1] = tested on: MV4-11; experiment: Activity against AML cell line MV4-11 (CellTiter-Blue, 72 h)
Description: Cells were added to 96 well plates at 2000 cells per well for adherent lines and 4000 cells per well for suspension lines and kept in an incubator overnight. The following day the plates were treated with compounds to give rise to the final concentrations of; 100 μM, 10 μM, 5 μM 1 μM, 500 nM, 100 nM, 10 nM, […]. The plates were then stored in the incubator for 72 hours. On the third day the cells were assayed with 20 μL of CellTiter—Blue Cell Viability Assay per well and were incubated for 4 hours. After 4 hours' fluorescence intensity was taken on a plate reader: Excitation: 560/10 Emission: 590/10. IC50 analysis was performed on GraphPad Prism 7.

[2] = tested on: HCT116; experiment: Proliferation inhibition at single concentration (CellTiter-Blue); settings: 1 μM compound
[3] = tested on: MV-4-11; experiment: as above; settings: 1 μM compound
[4] = tested on: MCF-7; experiment: as above; settings: for Percent inhibition of proliferation MCF-7: 1 μM compound
Description: (§1) Plates were then treated with compound diluted in dimethyl sulfoxide (DMSO) as well as a DMSO control the following day for 72 hours. After this time the plates were then treated with 10 μL of CellTiter-Blue Cell Viability Assay (Promega, Madison, WI) for 4 hours. Then the plates were read on a plate reader (Bio-Tek, Winooski, VT). Data was analyzed on Excel as a percent of the DMSO vehicle.
(§2) Antiproliferative activities against AML cell line, MV4-11 (a FLT3-driven cell line) and three other solid tumors (MCF7, breast, HCT116, colon and HeLa) have been investigated (Tables 6A and 6B and FIG. 10).

[5] = tested on: HeLa; experiment: as above; settings: for Percent inhibition of proliferation HeLa: 1 μM compound
Description: as §1, §2

[6] = tested on: K562; experiment: IC50 proliferation assay (Alamar Blue, 72 h)
Description: IC50 proliferation assay—Cell lines and primary cells were seeded into 96-well plates the afternoon prior to treatment. Approximately 18 hours later, compounds were semi-serially diluted in dimethyl sulfoxide (DMSO) and then growth medium, and added to cells. Plates were incubated for 72 hours prior to addition of Alamar Blue (Life Technologies, Carlsbad, CA). Plates were read after 4 additional hours of incubation at 37° C. using a Bio-Tek Synergy HT plate reader (Bio-Tek, Winooski, VT). Data was analyzed and graphed using GraphPad Prism Software (Graphpad, La Jolla. CA).
IC50 (proliferation inhibition) against leukemia cell lines MV4-11 and K562. […] MiaPaca-2 (Pancreatic cell line), HLY-1 (Lymphoma cell line), MV4-11 (AML, cell line) and K562 (CML cell line).

[7] = 72 h, read-out: IC50 against MV4-11/uM
[8] = Homo sapiens, K562, Table 18, read-out: Inhibition of proliferation of K562 cell lines (CML)
[9] = Table 18, read-out: Inhibition of proliferation of K562 cell lines (CML)

Row | Structure (SMILES) | Percent inhibition of proliferation HCT116 [2] [%] | Percent inhibition of proliferation MV-4-11 [3] [%] | Percent inhibition of proliferation MCF-7 [4] [%] | Percent inhibition of proliferation HeLa [5] [%] | other results
1 | O=C(NCCCN1CCCCC1)c1ccc(C#Cc2cncc3ccccc23)cc1 [HSM1690] |  |  |  |  | IC50 [1, 7]: 3.09 µM
2 | CN(C)CCCCCNC(=O)c1ccc(C#Cc2c(N)ncc3ccc(Cl)cc23)cc1 [HSM1684] |  |  |  |  | IC50 [1, 7]: 0.071 µM; IC50 ([1]; FIG. 1, read-out: anticancer activities (IC50) against MV4-11): 0.071 µM
3 | NCCNC(=O)c1ccc(C#Cc2c(N)ncc3ccc(Cl)cc23)cc1 [HSN204] | 21 | 77 | 20 | 22 | 
4 | Nc1ncc2ccc(Cl)cc2c1C#Cc1cccc(C(=O)N2CCC(N)CC2)c1.O=C(O)C(F)(F)F [HSN174] | 28 | 85 | 40 | 10 | 
5 | Cc1ccc(C(=O)Nc2ccc(CN3CCN(C)CC3)c(C(F)(F)F)c2)cc1C#Cc1c(N)nc(C)c2ccccc12 [HSN375, 3-((3-amino-1-methylisoquinolin-4-yl)ethynyl)-4-methyl-N-(4-((4-methylpiperazin-1-yl)methyl)-3-(trifluoromethyl)phenyl)benzamide] |  |  |  |  | IC50 [6, 8]: 8.8 ± 0.4 nM
6 | CCN(CC)CC(O)CNC(=O)c1cccc(C#Cc2c(N)ncc3ccc(Cl)cc23)c1 (stereo not shown) [HSN189] | 7 | 95 | 49 | 18 | 
7 | CN(C)CCOc1ccc(CNC(=O)c2ccc(C#Cc3c(N)ncc4ccc(Cl)cc34)cc2)cc1 [HSN99] | 20 | 97 | 42 | 6 | 
8 | Nc1ncc2ccc(Cl)cc2c1C#Cc1ccc(C(=O)NCCc2c[nH]cn2)cc1 [HSN145] | 35 | 99 | 6 | 11 | 
9 | CN(CCCN1CCCCC1)C(=O)c1ccc(C#Cc2c(N)ncc3ccc(Cl)cc23)cc1 [HSN105] | 40 | 88 | 12 | 1 | IC50 [1, 7]: 0.061 µM
10 | Nc1ncc2ccc(Cl)cc2c1C#Cc1ccc(C(=O)NCCCN2CCOCC2)cc1 [HSM1610] | 39 | 90 | 29 | 20 | 
11 | Cc1ccc(C(=O)NCCN2CCCCC2)cc1C#Cc1cnc(N)c2ncccc12 [HSL45] |  |  |  |  | IC50 [6, 9]: 25.3 ± 0.1 nM
12 | CCN(CC)CC(O)CNC(=O)c1ccc(C#Cc2c(N)ncc3ccc(Cl)cc23)cc1 (stereo not shown) [HSN184] | 38 | 97 | 92 | 51 | 
13 | Nc1ncc2ccc(Cl)cc2c1C#Cc1ccc(C(=O)NCC(O)CN2CCCC2)cc1 (stereo not shown) [HSM1750] | 20 | 93 | 17 | 11 | 
14 | Nc1ncc2ccc(Cl)cc2c1C#Cc1ccc(C(=O)NCC(O)CN2CCCCC2)cc1 (stereo not shown) [HSM1725] |  |  |  |  | IC50 [1, 7]: 0.008 µM
15 | Cc1ccc(C(=O)NCCN2CCCCC2)cc1C#Cc1cnc2cccnn12 [HSL44] |  |  |  |  | IC50 [6, 9]: 43.5 ± 0.14 nM
16 | Nc1ncc2ccc(Cl)cc2c1C#Cc1ccc(C(=O)N2CCC3(CCNCC3)CC2)cc1 [HSM1773] | 24 | 93 | 43 | 24 | 

Row | Structure (SMILES) | Percent inhibition of proliferation HCT116 [2] [%] | Percent inhibition of proliferation MV-4-11 [3] [%] | Percent inhibition of proliferation MCF-7 [4] [%] | Percent inhibition of proliferation HeLa [5] [%] | other results
17 | CC(C)(C)OC(=O)NC1CCN(C(=O)c2ccc(C#Cc3c(N)ncc4ccc(Cl)cc34)cc2)CC1 [HSN139] | 32 | 95 | 60 | 35 | 
18 | NCC(O)CNC(=O)c1ccc(C#Cc2c(N)ncc3ccc(Cl)cc23)cc1 (stereo not shown) [HSN177] | 15 | 91 | 46 | 1 | 
19 | Cc1ccc(C(=O)NCCN2CCCC2)cc1C#Cc1c(N)ncc2ccc(Cl)cc12 [HSL41] |  |  |  |  | IC50 [6, 9]: 30.1 ± 0.19 nM
20 | Nc1ncc2ccc(Cl)cc2c1C#Cc1cccc(C(=O)NCC(O)CN2CCCC2)c1 (stereo not shown) [HSM1751] | 32 | 91 | 47 | 23 | 
21 | Nc1ncc2ccc(Cl)cc2c1C#Cc1cccc(C(=O)NCCc2c[nH]cn2)c1 [HSN157] | 12 | 96 | 21 | 33 | 
22 | Nc1ncc2ccc(Cl)cc2c1C#Cc1ccc(C2=NC(C3CC3)CN2)cc1 (stereo not shown) [Compound 1703] |  |  |  |  | activity against MCF-7 in words ([4]; FIG. 2): potent; activity against HeLa in words ([5]; FIG. 3): potent
23 | COc1cc2nc(N)nc(C#Cc3cc(C(=O)NCc4ccc(OCCN(C)C)cc4)ccc3C)c2cc1OC [HSN317, 3-((2-amino-6,7-dimethoxyquinazolin-4-yl)ethynyl)-N-(4-(2-(dimethylamino)ethoxy)benzyl)-4-methylbenzamide] |  |  |  |  | IC50 ([6]; Homo sapiens, K562, 72 h, read-out: IC50 (proliferation inhibition) Cell line - K562): 1480 nM; IC50 [6, 8]: 1483 ± 0.1 nM
24 | Cc1ccc(C(=O)NCCN2CCOCC2)cc1C#Cc1c(N)ncc2ccc(Cl)cc12 [HSL43] |  |  |  |  | IC50 [6, 9]: 10.1 ± 0.1 nM
25 | Cc1ccc(C(=O)NCCN2CCN(C)CC2)cc1C#Cc1c(N)ncc2ccc(Cl)cc12 [HSL47] |  |  |  |  | IC50 [6, 9]: 161.1 ± 0.11 nM
26 | Cc1ccc(C(=O)NCCCN2CCCCC2)cc1C#Cc1c(N)ncc2ccc(Cl)cc12 [HSL56] |  |  |  |  | IC50 [6, 9]: 95.4 ± 0.23 nM
27 | CCN(CC)CC(O)CNC(=O)c1ccc(C)c(C#Cc2c(N)ncc3ccc(Cl)cc23)c1 (stereo not shown) [HSN185] | 67 | 97 | 100 | 99 | 
28 | CN(C)CC(O)CNC(=O)c1cccc(C#Cc2c(N)ncc3ccc(Cl)cc23)c1 (stereo not shown) [HSN161] | 18 | 97 | 91 | 70 | 
29 | Cc1ccc(C(=O)Nc2ccc(CN3CCN(C)CC3)c(C(F)(F)F)c2)cc1C#Cc1c(N)ncc2cc(Cl)c(Cl)cc12 [HSN393, 3-((3-amino-6,7-dichloroisoquinolin-4-yl)ethynyl)-4-methyl-N-(4-((4-methylpiperazin-1-yl)methyl)-3-(trifluoromethyl)phenyl)benzamide] |  |  |  |  | IC50 [6, 8]: 7.3 ± 0.04 nM
30 | N#Cc1cccc(C#Cc2c(N)ncc3ccc(Cl)cc23)c1 [HSM1617] |  |  |  |  | IC50 [1, 7]: 0.77 µM
31 | CC(C)(C)OC(=O)N1CCN(CCCNC(=O)c2ccc(C#Cc3c(N)ncc4ccc(Cl)cc34)cc2)CC1 [HSM1693] |  |  |  |  | IC50 [1, 7]: 0.03 µM; IC50 ([1]; Table 2, read-out: IC50 (nM) against MV4-11 (AML cell line)): 0.0148 ± 0.0014 µM
32 | Cc1ccc(C(=O)NCCN2CCCCC2)cc1C#Cc1cnc(N)c2ccccc12 [HSL58] |  |  |  |  | IC50 [6, 9]: 94.5 ± 0.1 nM
